{"source": "ChEMBL document CHEMBL1148213", "about": "“Diterpenoids from Isodon melissoides” (J Nat Prod, 2004)", "data": [{"test_system": "BGC-823", "assay": "Cytotoxicity against human BGC823 cells", "assay_type": "functional, cell-based", "units": {"IC50": "µg/mL"}, "values": [{"smiles": "C=C1C(=O)[C@]23C[C@H]1C[C@H](O)[C@H]2[C@]1(C)CC[C@H](OC(C)=O)C(C)(C)[C@H]1[C@@H](OC(C)=O)C3", "note": "[MELISSOIDESIN O]", "IC50": 7.83}, {"smiles": "C=C1[C@@H]2C[C@H](O)[C@@H]3[C@](C2)(C[C@H](OC(C)=O)[C@@H]2C(C)(C)[C@@H](OC(C)=O)C[C@H](OC(C)=O)[C@]23C)[C@@H]1O", "Activity": "Not toxic"}, {"smiles": "C=C1[C@@H]2C[C@H](O)[C@H]3[C@]4(C)CC[C@H](O)C(C)(C)[C@H]4[C@@H](OC(C)=O)C[C@]3(C2)[C@@H]1O", "Activity": "Not toxic"}, {"smiles": "C=C1[C@@H]2C[C@H](O)[C@H]3[C@]4(C)CC[C@H](O)C(C)(C)[C@H]4[C@@H](OC(C)=O)[C@H](OC(C)=O)[C@]3(C2)[C@@H]1O", "Activity": "Not toxic"}, {"smiles": "C=C1[C@@H]2C[C@H](O)[C@H]3[C@]4(C)CC[C@H](O)C(C)(C)[C@H]4[C@@H](OC(C)=O)[C@H](O)[C@]3(C2)[C@@H]1O", "Activity": "Not toxic"}, {"smiles": "C=C1C(=O)[C@]23C[C@H]1C[C@H](O)[C@H]2[C@]1(C)CC[C@H](O)C(C)(C)[C@H]1[C@@H](OC(C)=O)C3", "note": "[MELISSOIDESIN N]", "IC50": 0.036}, {"smiles": "CC[C@]1(O)C[C@H]2CN(CCc3c([nH]c4ccccc34)[C@@](C(=O)OC)(c3cc4c(cc3OC)N(C=O)[C@H]3[C@@](O)(C(=O)OC)[C@H](OC(C)=O)[C@]5(CC)C=CCN6CC[C@]43[C@@H]65)C2)C1", "note": "[VINCRISTINE]", "IC50": 0.066}, {"smiles": "C=C1C(=O)[C@]23C[C@H]1C[C@H](O)[C@H]2[C@]1(C)CC[C@H](OC(C)=O)C(C)(C)[C@H]1[C@@H](OC(C)=O)[C@@H]3OC(C)=O", "note": "[DAWOENSIN A]", "IC50": 3.54}, {"smiles": "C=C1C(=O)[C@]23C[C@H]1C[C@H](O)[C@H]2[C@]1(C)CC[C@H](OC(C)=O)C(C)(C)[C@H]1[C@@H](OC(C)=O)[C@@H]3O", "note": "[MELISSOIDESIN G]", "IC50": 6.62}, {"smiles": "C=C1[C@@H]2C[C@H](O)[C@H]3[C@]4(C)CC[C@H](OC(C)=O)C(C)(C)[C@H]4[C@@H](OC(C)=O)C[C@]3(C2)[C@@H]1O", "Activity": "Not toxic"}, {"smiles": "C=C1C(=O)[C@]23C[C@H]1C[C@H](O)[C@H]2[C@@]1(C)[C@H]([C@@H](OC(C)=O)C3)C(C)(C)[C@@H](OC(C)=O)C[C@@H]1O", "note": "[MELISSOIDESIN S]", "IC50": 7.71}, {"smiles": "C=C1[C@@H]2C[C@H](O)[C@H]3[C@]4(C)CC[C@H](OC(C)=O)C(C)(C)[C@H]4[C@@H](OC(C)=O)[C@H](OC(C)=O)[C@]3(C2)[C@@H]1O", "Activity": "Not toxic"}, {"smiles": "C=C1[C@@H]2C[C@H](O)[C@@H]3[C@](C2)(C[C@H](OC(C)=O)[C@@H]2C(C)(C)[C@@H](OC(C)=O)C[C@H](O)[C@]23C)[C@@H]1O", "Activity": "Not toxic"}, {"smiles": "C=C1C(=O)[C@]23C[C@H]1C[C@H](O)[C@H]2[C@]1(C)CC[C@H](O)C(C)(C)[C@H]1[C@@H](OC(C)=O)[C@@H]3O", "note": "[XINDONGNIN B]", "IC50": 9.45}]}]}
